Measured values taken from ChEMBL document CHEMBL1138875, “Design and synthesis of substituted pyridine derivatives as HIF-1alpha prolyl hydroxylase inhibitors” (Bioorg Med Chem Lett, 2006).

Molecular target: Egl nine homolog 1 (Homo sapiens, UniProt Q9GZT9)
Test: Inhibition of EGLN1

Chain of Egl nine homolog 1 (Q9GZT9 whole entry): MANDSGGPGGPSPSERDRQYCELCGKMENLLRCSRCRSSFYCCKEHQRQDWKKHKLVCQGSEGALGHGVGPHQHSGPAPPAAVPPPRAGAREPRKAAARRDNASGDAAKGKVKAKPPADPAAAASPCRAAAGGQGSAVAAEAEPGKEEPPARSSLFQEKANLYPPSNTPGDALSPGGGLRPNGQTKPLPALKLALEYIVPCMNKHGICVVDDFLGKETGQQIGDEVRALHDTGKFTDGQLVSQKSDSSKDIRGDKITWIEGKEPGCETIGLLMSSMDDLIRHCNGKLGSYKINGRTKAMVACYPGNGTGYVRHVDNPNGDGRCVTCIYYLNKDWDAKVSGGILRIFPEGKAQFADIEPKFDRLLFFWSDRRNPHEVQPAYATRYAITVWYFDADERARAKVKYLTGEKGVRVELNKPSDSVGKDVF

IC50 | SMILES
> 100 µM | O=C(O)CNC(=O)c1ccccn1
> 100 µM | O=C(O)CNC(=O)c1ccc(-c2cccc(Cl)c2)cn1
> 100 µM | O=C(O)CNC(=O)c1cc(-c2ccc(Cl)cc2)ccn1
